Where two headings read alike, the source gives them in different places.
Experiments:
BpGH3-AR8MLG = BpGH3-AR8MLG (Blautia producta, UniProt A0ABX6J8C8); assay type: biochemical, Blautia producta ATCC 27340; details: PAHBAH assay; 100 mM HEPES pH 6.5, 37 °C
Method: 150 μl of a freshly prepared 8:2 mixture of reagent A (50 mM sodium sulfite, 0.3 M 4-hydroxybenzhydrazide and 0.6 M HCl) and reagent B (50 mM trisodium citrate, 10 mM CaCl2, 0.5 M NaOH) were added to 50 μl sample. The reaction cocktail was boiled for 10 min at 100 °C. After the reaction was cooled down, the absorbance was recorded at 410 nm using the SpectraMax i3x multi-mode microplate reader. A calibration curve with different concentrations of glucose (0, 2, 4, 8, 16, 40, 80, 100, 200, 300, and 500 μM) was employed for each experiment to calculate the released amount of glucose (reducing end equivalents). The same samples were also used for control measurement, and the control value was subtracted from test reading prior to calculate kinetics parameters. In all cases, the Km, Vmax, and kcat were analyzed on GraphPad Prism. Three independent replicates were used for each test. TLC analyses were used for understanding the enzymatic degradation profiles of various oligosaccharides.

BpGH16MLG = test: Initial screening of BpGH16MLG against substrates (TLC); assay type: biochemical, Blautia producta ATCC 27340; details: pH 5.7, 37 °C, 2 h
Method: After the appropriate incubation time, the reaction was terminated by boiling (5 min), and generated oligosaccharides were analyzed by thin layer chromatography (TLC). Typically, 1 μl of the reaction mixture was used for TLC analysis. TLC analysis was performed on Silica Gel 60 F254 (Merck), and produced sugars were visualized by spraying TLC with 5% H2SO4 in ethanol, followed by heating.

BpSBPMLG = BpSBPMLG (Blautia producta, UniProt A0ABX6JB09); test: Isothermal titration calorimetry of oligosaccharide binding to BpSBPMLG; set-up: species or system Blautia producta ATCC 27340; details: for -TΔS^0 / n (binding stoichiometry) / ΔG^0 / ΔH: ITC at 25 °C, 10 mM sodium phosphate pH 7.0
Method: The binding of β-(1,4), β-(1,3), and MLG-oligosaccharides to BpSBPMLG was measured at 25 °C in 10 mM sodium phosphate buffer (pH 7) using a MicroCal PEAQ-ITC (Malvern). The protein was extensively dialyzed against 10 mM sodium phosphate and all glycan ligands were also dissolved in the same buffer to minimize the heat of dilution. 13 injections of an oligosaccharide were titrated on BpSBPMLG present in the sample cell. Various preliminary titration setups were tried by changing amounts of protein (5–100 μM) and ligand (50 μM–10 mM) to get the best experimental conditions. Thermodynamic binding parameters [calculates binding affinity (Kd), stoichiometry (n), enthalpy (ΔH), Gibbs free energy change (ΔG), and entropy (ΔS)] were determined using the MicroCal PEAQ-ITC analysis software.

TaCDP = system: TaCDP; set-up: method as in PMID 28687766; details: phosphorolytic reaction; cited from earlier work
BpGH94MLG = target: T1, BpGH94MLG (Blautia producta, UniProt A0A7G5MNS2); test: Phosphorolysis activity of BpGH94MLG on substrates (TLC); assay type: biochemical, Blautia producta ATCC 27340; details: inorganic phosphate, 37 °C
T1 sequence (A0A7G5MNS2 1-804): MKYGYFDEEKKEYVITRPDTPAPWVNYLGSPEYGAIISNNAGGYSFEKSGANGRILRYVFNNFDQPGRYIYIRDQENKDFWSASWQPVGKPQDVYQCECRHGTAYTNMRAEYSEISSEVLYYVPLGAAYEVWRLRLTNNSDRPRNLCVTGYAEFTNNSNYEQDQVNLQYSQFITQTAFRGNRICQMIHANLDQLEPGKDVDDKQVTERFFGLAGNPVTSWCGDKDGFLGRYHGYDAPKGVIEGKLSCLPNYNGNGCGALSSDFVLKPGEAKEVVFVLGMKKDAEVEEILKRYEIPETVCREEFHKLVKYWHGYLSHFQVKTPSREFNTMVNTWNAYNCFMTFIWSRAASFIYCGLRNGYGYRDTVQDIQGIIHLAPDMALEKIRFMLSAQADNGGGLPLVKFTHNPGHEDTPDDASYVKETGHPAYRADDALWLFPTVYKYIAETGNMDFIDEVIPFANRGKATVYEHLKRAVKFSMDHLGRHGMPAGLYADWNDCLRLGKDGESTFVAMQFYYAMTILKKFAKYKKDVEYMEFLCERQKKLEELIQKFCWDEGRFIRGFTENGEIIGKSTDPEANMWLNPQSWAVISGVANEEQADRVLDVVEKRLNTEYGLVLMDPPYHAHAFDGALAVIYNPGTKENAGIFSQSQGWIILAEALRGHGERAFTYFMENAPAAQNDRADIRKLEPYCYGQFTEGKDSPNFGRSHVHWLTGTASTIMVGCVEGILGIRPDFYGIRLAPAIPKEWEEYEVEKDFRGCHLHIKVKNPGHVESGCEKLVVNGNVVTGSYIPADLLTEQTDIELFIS
Method: TLC was used for analyzing enzymatic actions. […] Kinetics parameters for BpGH94MLG were determined with G4G3G, G4G4G3G and cellotriose, following a p-hydroxybenzoic acid hydrazide (PAHBAH) reducing sugar assay ([69]).

BpGH16MLG (BPGH16) = test: Michaelis-Menten kinetics of BpGH16MLG on β-glucans (DNS assay); assay type: biochemical, Blautia producta ATCC 27340; details: native BPGH16; DNS assay; pH 5.7, 37 °C
Method: Then, reactions were terminated by boiling for 5 min. Enzymatic assays were determined with 3,5- dinitrosalicylic acid (DNS) assay ([85]). In brief, 0.05 g Na2SO3 and 1 g DNS were mixed in a 50 ml water-containing reagent bottle and stirred about 6 h using a magnetic stirrer. After that, 200 μl phenol was added and made up to 100 ml. A working solution of DNS was prepared by adding 50 μl glucose (20% (w/v) stock) in prepared 100 ml of reagent mixtures and immediately used for experiments without adding NaOH. 80 μl DNS reagent was added to the reaction mixtures and incubated at 100 °C for 10 min, followed by ice-cooling for 10 min. Consequently, recorded the developed color spectrophotometrically at 575 nm ([85]). A standard curve generated by different concentrations of maltose was used for determining released reducing sugars in each case.

Chain of BpSBPMLG (A0ABX6JB09 entry or part of it): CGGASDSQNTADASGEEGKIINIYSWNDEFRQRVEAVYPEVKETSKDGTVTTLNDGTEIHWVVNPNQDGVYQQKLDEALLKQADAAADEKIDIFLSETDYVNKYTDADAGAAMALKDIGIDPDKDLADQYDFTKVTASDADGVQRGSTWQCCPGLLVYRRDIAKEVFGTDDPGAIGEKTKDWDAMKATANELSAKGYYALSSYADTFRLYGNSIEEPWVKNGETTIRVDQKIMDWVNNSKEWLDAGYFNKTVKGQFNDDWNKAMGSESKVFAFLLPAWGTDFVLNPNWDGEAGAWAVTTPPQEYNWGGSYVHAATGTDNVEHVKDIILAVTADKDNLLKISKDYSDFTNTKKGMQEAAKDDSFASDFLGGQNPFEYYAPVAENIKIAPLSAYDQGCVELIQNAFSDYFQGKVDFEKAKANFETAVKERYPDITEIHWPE
Chain of BpGH3-AR8MLG (A0ABX6J8C8 entry or part of it): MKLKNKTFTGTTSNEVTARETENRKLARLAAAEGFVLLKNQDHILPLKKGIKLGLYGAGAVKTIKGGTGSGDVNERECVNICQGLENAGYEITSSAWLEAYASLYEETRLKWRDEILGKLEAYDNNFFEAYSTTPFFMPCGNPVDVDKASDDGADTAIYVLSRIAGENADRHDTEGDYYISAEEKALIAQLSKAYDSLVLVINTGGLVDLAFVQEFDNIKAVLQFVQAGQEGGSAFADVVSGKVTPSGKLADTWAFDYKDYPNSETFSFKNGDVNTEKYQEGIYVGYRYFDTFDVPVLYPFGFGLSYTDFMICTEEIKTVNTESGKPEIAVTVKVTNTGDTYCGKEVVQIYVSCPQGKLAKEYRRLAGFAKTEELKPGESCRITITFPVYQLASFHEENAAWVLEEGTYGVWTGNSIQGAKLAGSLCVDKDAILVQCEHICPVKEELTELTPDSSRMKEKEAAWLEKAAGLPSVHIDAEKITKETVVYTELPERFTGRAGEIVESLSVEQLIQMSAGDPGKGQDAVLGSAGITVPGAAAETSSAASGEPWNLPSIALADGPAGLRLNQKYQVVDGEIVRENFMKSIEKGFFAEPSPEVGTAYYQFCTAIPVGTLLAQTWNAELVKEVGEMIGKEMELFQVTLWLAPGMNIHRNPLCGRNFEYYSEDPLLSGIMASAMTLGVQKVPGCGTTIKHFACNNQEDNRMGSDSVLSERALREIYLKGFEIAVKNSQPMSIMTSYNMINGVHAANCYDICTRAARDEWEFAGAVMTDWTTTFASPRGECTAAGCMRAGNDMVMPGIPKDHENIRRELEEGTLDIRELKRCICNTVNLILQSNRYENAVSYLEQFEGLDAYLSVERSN

| Compound | activity of BpGH16MLG on substrate (initial screening) (BpGH16MLG) | Kd (BpSBPMLG) [µM] | binding to BpSBPMLG (in words) (BpSBPMLG; ITC) | -TΔS^0 (BpSBPMLG) [kcal/mol] | n (binding stoichiometry) (BpSBPMLG) | ΔG^0 (BpSBPMLG) [kcal/mol] | ΔH (BpSBPMLG) [kcal/mol] | phosphorolysis activity of BpGH94MLG (in words) (BpGH94MLG) | also measured |
| --- | --- | --- | --- | --- | --- | --- | --- | --- | --- |
| O=C[C@H](O)[C@@H](O)[C@H](O[C@@H]1O[C@H](CO)[C@@H](O)[C@H](O)[C@H]1O)[C@H](O)CO [Cellobiose] | did not show activity | 30.6 | some affinity | 0.8 | 0.78± 0.18 | -6.2 | -7.0 ± 2.2 | did not show any phosphorolysis activity | Km (BpGH3-AR8MLG): 200 ± 30 µM; kcat (BpGH3-AR8MLG): 8 ± 0.1 s⁻¹; Km (TaCDP): 120 µM; kcat (TaCDP): 0.23 s⁻¹ |
| OC[C@H]1O[C@@H](O[C@H]2[C@H](O)[C@@H](CO)OC(O)[C@@H]2O)[C@H](O)[C@@H](O)[C@@H]1O (some centres unmarked) [Laminaribiose] | did not show activity | 22.1 | some affinity |  | 1.03 ± 0.02 | -6.35 | -3.14 ± 0.16 | did not show any phosphorolysis activity | Km (BpGH3-AR8MLG): 240 ± 30 µM; kcat (BpGH3-AR8MLG): 12 ± 0.2 s⁻¹ |
| OC[C@H]1O[C@H](O[C@H]2[C@H](O)[C@@H](O)[C@H](O)O[C@@H]2CO)[C@H](O)[C@@H](O)[C@@H]1O [maltose] | did not show activity |  | no detectable affinity |  |  |  |  | did not show any phosphorolysis activity |  |
| Gentiobiose | did not show activity |  | no detectable affinity |  |  |  |  | did not show any phosphorolysis activity |  |
| OC[C@H]1O[C@@H](O[C@@H]2[C@@H](O)[C@H](O[C@@H]3[C@@H](O)[C@H](O[C@H]4[C@H](O)[C@@H](CO)OC(O)[C@@H]4O)O[C@H](CO)[C@H]3O)O[C@H](CO)[C@H]2O)[C@H](O)[C@@H](O)[C@@H]1O (some centres unmarked) [Laminaritetraose] |  |  |  | 5.29 |  |  | -0.15 ± 0.12 |  | Kd (BpSBPMLG; ITC, read-out: Kd): 5600 µM |
| OC[C@H]1O[C@@H](O[C@H]2[C@H](O)[C@@H](O)[C@H](O)O[C@@H]2CO)[C@H](O)[C@@H](O)[C@H]1O [lactose] |  |  | no detectable affinity |  |  |  |  |  |  |
| OC[C@H]1O[C@@H](O[C@@H]2[C@@H](O)[C@H](O[C@H]3[C@H](O)[C@@H](CO)OC(O)[C@@H]3O)O[C@H](CO)[C@H]2O)[C@H](O)[C@@H](O)[C@@H]1O (some centres unmarked) [Laminaritriose] | did cleave | 3.41 |  | 3.8 | 0.9 ± 0.01 | -7.46 | -3.66 ± 0.02 | did not show any phosphorolysis activity |  |
| OC[C@H]1O[C@@H](O[C@H]2[C@H](O)[C@@H](O)[C@H](O[C@H]3[C@H](O)[C@@H](O)[C@H](O[C@H]4[C@H](O)[C@@H](O)C(O)O[C@@H]4CO)O[C@@H]3CO)O[C@@H]2CO)[C@H](O)[C@@H](O)[C@@H]1O (some centres unmarked) [Cellotetraose] |  | 0.75 |  | 8.25 | 0.45 ± 0.02 | -8.35 | -16.6 ± 0.75 |  | Km (BpGH3-AR8MLG): 470 ± 60 µM; kcat (BpGH3-AR8MLG): 20 ± 0.2 s⁻¹; n (binding stoichiometry) (BpSBPMLG; listed as cellotetraose): 0.45 |
| yeast β-glucan | did cleave |  |  |  |  |  |  |  |  |
| Oat β-glucan | did cleave |  |  |  |  |  |  |  | Km (BpGH16MLG (BPGH16)): 0.32 ± 0.05 mg/mL; kcat (BpGH16MLG (BPGH16)): 46 ± 0.8 s⁻¹ |
| lentinan | did cleave |  |  |  |  |  |  |  |  |
| OC[C@H]1O[C@@](CO)(O[C@H]2O[C@H](CO)[C@@H](O)[C@H](O)[C@H]2O)[C@@H](O)[C@@H]1O [sucrose] | did not show activity |  |  |  |  |  |  | did not show any phosphorolysis activity |  |

From publication PMC10318527, “Utilization of dietary mixed-linkage β-glucans by the Firmicute Blautia producta” (The Journal of Biological Chemistry, 2023)
